Test results from the NIST ThermoML archive (doi:10.1021/je030163d).

Test: xn = mol fraction of the nth substance listed
Conditions: 101.3 kPa, Liquid; for viscosity: Capillary tube (Ostwald / Ubbelohde) method; for mass density: Pycnometric method

CC(=O)c1ccccc1 [acetophenone] + CN(C)C=O
Conditions | mass density, 298.15 K [kg/m3] | mass density, 303.15 K [kg/m3] | mass density, 308.15 K [kg/m3] | mass density, 313.15 K [kg/m3] | viscosity, 298.15 K [mPa·s] | viscosity, 303.15 K [mPa·s] | viscosity, 308.15 K [mPa·s] | viscosity, 313.15 K [mPa·s]
x2 = 0 | 1024.1 | 1019.9 | 1015.7 | 1011.2 | 1.68 | 1.54 | 1.41 | 1.31
x2 = 0.1123 | 1018 | 1013.9 | 1009.7 | 1005.2 | 1.584 | 1.453 | 1.33 | 1.238
x2 = 0.1641 | 1015.6 | 1011.4 | 1007.2 | 1002.7 | 1.544 | 1.418 | 1.299 | 1.206
x2 = 0.308 | 1008.8 | 1004.6 | 1000.4 | 995.9 | 1.43 | 1.314 | 1.205 | 1.123
x2 = 0.4328 | 1001 | 996.8 | 992.5 | 988 | 1.328 | 1.221 | 1.122 | 1.047
x2 = 0.5286 | 994.2 | 989.9 | 985.6 | 981.1 | 1.246 | 1.148 | 1.056 | 0.987
x2 = 0.6256 | 985.8 | 981.4 | 977.1 | 972.5 | 1.156 | 1.069 | 0.984 | 0.922
x2 = 0.7165 | 977.2 | 972.8 | 968.4 | 963.8 | 1.072 | 0.995 | 0.918 | 0.862
x2 = 0.7943 | 969 | 964.5 | 960 | 955.3 | 0.999 | 0.93 | 0.861 | 0.81
x2 = 0.9378 | 952.5 | 947.9 | 943.3 | 938.5 | 0.863 | 0.809 | 0.755 | 0.714

OCc1ccccc1 [benzenemethanol] + CN(C)C=O
Conditions | mass density, 298.15 K [kg/m3] | mass density, 303.15 K [kg/m3] | mass density, 308.15 K [kg/m3] | mass density, 313.15 K [kg/m3] | viscosity, 298.15 K [mPa·s] | viscosity, 303.15 K [mPa·s] | viscosity, 308.15 K [mPa·s] | viscosity, 313.15 K [mPa·s]
x2 = 0 | 1041.3 | 1037.5 | 1033.7 | 1029.4 | 5.16 | 4.67 | 4.004 | 3.52
x2 = 0.1088 | 1036.1 | 1032.3 | 1028.5 | 1024.3 | 4.473 | 4.06 | 3.51 | 3.106
x2 = 0.1712 | 1032.5 | 1028.7 | 1024.9 | 1020.6 | 4.011 | 3.648 | 3.17 | 2.817
x2 = 0.3055 | 1022.7 | 1018.8 | 1014.9 | 1010.6 | 3.14 | 2.87 | 2.517 | 2.26
x2 = 0.4003 | 1014.8 | 1010.8 | 1006.8 | 1002.4 | 2.59 | 2.378 | 2.1 | 1.9
x2 = 0.5393 | 1001.3 | 997.2 | 993.1 | 988.7 | 2.02 | 1.86 | 1.67 | 1.52
x2 = 0.5865 | 996.1 | 992 | 987.9 | 983.4 | 1.85 | 1.71 | 1.541 | 1.411
x2 = 0.717 | 980.7 | 976.4 | 972.1 | 967.6 | 1.44 | 1.335 | 1.218 | 1.127
x2 = 0.7962 | 970.3 | 965.9 | 961.5 | 956.9 | 1.23 | 1.146 | 1.054 | 0.982
x2 = 0.8972 | 957.6 | 953.1 | 948.7 | 944 | 1.001 | 0.938 | 0.872 | 0.819
